Reference: patent US11731977B2, “SGC stimulators” (Cyclerion Therapeutics, Inc., priority 2016, dated 2023)
Marks after values point to notes of the source that are not given here.

Legend:
rats [1] = assay: Post-operative pain: Brennan model, electronic Von Frey test (Example 13); format: in vivo, rat; details: Compound I-1 p.o. 10 mg/kg, 120 minutes after treatment
Text: Surgery: Surgery was done under gas anesthesia (2.5% isoflurane/3 L/min). For all rats, the plantar aspect of the left hind paw was exposed and a 1 cm longitudinal incision was made using a surgical blade, through the skin and fascia of the plantar aspect of the foot, starting 0.5 cm from the proximal edge of the heel and extending toward the toes. The plantaris muscle was elevated and incised longitudinally whereas the insertions remained intact. After hemostasis with gentle pressure, the skin was stitched up with two sutures. After surgery, animals recovered in their cages.
Electronic Von Frey Test: Tactile allodynia was assessed using the electronic Von Frey test 24 h after surgery. […] The apparatus exerted a steady force on the hind paws. […] Each reaction threshold measurement was repeated three times for both hind paws with intervals of approximately 2 to 3 mins.

rats [2] = assay: Acute and tonic pain: healthy rats, tail flick test (Example 13); details: Compound I-1 p.o. 10 mg/kg, 120 minutes after treatment
Experimental: Tail Flick Test. A radiant heat was applied on the tail. When the rat felt discomfort, it reacted by a sudden tail movement (tail flick) which automatically stopped the stimulation and the timer for the measurement by the animal reaction time or nociceptive reaction latency (period from the beginning of the stimulation until detection of the response of the animal). A cut-off was previously fixed at 10 sec in order to prevent tissue damage.
Testing: 120 minutes after treatment. N=4/model/test. Results are expressed for each group as a percentage of activity calculated from the mean value of the vehicle-treated animals and compared to naïve animals, control paw, or cut-off value, depending on the test.

[3] = Dog cerebrospinal fluid (CSF) pharmacokinetic properties (Example 5); format: in vivo; details: male, beagle, 1 mg/kg PO
Experimental: Protocol PK in dogs was determined following oral dosing. A group of 4 male beagle dogs were used and the dogs were dosed with 1 mg/kg of a compound formulated as a suspension in 1% HPMC E5, 0.2% Tween 80, and 0.5% MC in water. PO doses were administered by oral gavage in a gelatin capsule and delivered to the stomach using a gavage tube. Following oral dosage administration, the gavage tube was flushed with approximately 10 mL of water to ensure complete delivery of the full dose.
Plasma and CSF samples were collected as follows: samples of CSF and blood were collected at 1, 2, 4 and 8 hours post PO dosing. CSF samples (0.05 mL) were collected from the lumbosacral region (L4/5) via direct needle puncture at the appropriate time points. Blood samples (0.25 mL) were collected via cephalic vein. These samples were kept on ice until processed for plasma. Blood samples were centrifuged at 3200 rpm for 5 minutes at approximately 5° C. within 1 hour of collection. Plasma was directly transferred to a 96-well plate tube (0.125 mL). Plug caps were placed on the tubes and the tubes frozen at approximately −70° C. and stored until analysis. Plasma was collected and analyzed for the presence of a compound.
Quantitation of Compounds. The compound of the invention and the internal standard were extracted from plasma and CSF by precipitation. Samples were analyzed using liquid chromatography (LC) with tandem mass spectrometric detection (MS/MS) using electrospray ionization. The standard curve range was from 1 to 1000 ng/mL. Results of the compounds described herein in this assay are illustrated in Tables 5a and 5b below (1 mg/kg dose).
Kp,uu is defined as the concentration ratio of unbound drug in CSF to unbound drug in plasma. Unbound drug in plasma (or free plasma concentration) is calculated by multiplying the total plasma concentration by the unbound fraction as determined by plasma protein binding. The CSF concentration is then divided by the free plasma concentration to determine the Kp,uu. (See e.g., Di et al., J. Med. Chem 56, 2-12 (2013))

rats [4] = assay: Inflammatory pain: carrageenan, paw pressure test (Example 13); format: in vivo, rat; details: Compound I-1 p.o. 10 mg/kg, 120 minutes after treatment
[5] = tested on: brain activity in awake rats; assay: Brain activation in rats measured by fMRI-BOLD (Example 11); format: in vivo, rat; details: single IV administration, vs peripherally restricted sGC stimulator
Text: Objective. Functional magnetic resonance imaging or functional MRI (fMRI) is a functional neuroimaging procedure using MRI technology that measures brain activity by detecting changes associated with blood flow. This technique relies on the fact that cerebral blood flow and neuronal activation are coupled. When an area of the brain is in use, blood flow to that region also increases. Awake rats were studied by fMRI to assess changes (“fingerprint”) in brain activity following a single intravenous administration of a compound of the invention
Experimental Design. 24 male Sprague-Dawley rats weighing from 275-350 g were used. Following acclimation, the animals were placed in the restrainer and positioned in the magnet. Catheters were placed in each animal to allow for remote dosing when the animals were in the magnet. Scans were acquired continuously for 5 minutes prior to administration of either a vehicle or a compound of the invention to establish a baseline for the brain activity. Following the 5-minute baseline period, either the vehicle or the compound of the invention was administered to the rat and scans were acquired continuously for 30-45 minutes.

cGMP in rat CSF = assay: Rat CSF biomarker (cGMP) measurement (Example 7); format: in vivo
Experimental: This experiment was to determine the effect of different doses of a compound of the invention on the cGMP response as well as the compound concentration in rat CSF and compound concentration in rat plasma. Protocol. Each rat was sampled one time or multiple times with 3 or more days in between each dosing. Day before the experiment. Fast rats overnight with ad libitum access to water. Day of the experiment. Compound and cyclic guanosine monophosphate (cGMP) in rat CSF was determined following oral dosing. Male Sprague-Dawley rats with an indwelling catheter placed in the cisterna magna were used. The rats were dosed with 0 mg/kg (n=15), 3 mg/kg (n=19) and 10 mg/kg (n=20) of a compound of the invention formulated as a suspension in 0.5% methylcellulose, 0.5% Tween80. PO doses were administered by oral gavage and delivered to the stomach using a syringe and gavage tube. Following oral dosage administration, the gavage tube was flushed with approximately 0.5 mL of water to ensure complete delivery of the full dose. Plasma and CSF samples were collected under isoflurane anesthesia as follows: samples of CSF were collected at 1 hour and 6 hours post-dosing and samples of blood were collected 1 h post-dosing. CSF samples were collected through the intracisternal catheter. Approximately 20 μL of CSF and discard (dead volume is 14-16 μL); then withdraw approximately 50 μL of CSF in eppendorf tubes containing 5 μL of glacial acetic acid. Snap freeze CSF by immersion in liquid nitrogen. Blood samples (0.25 mL) were collected through retro-orbital sampling. These samples were kept on ice until processed for plasma. Blood samples were centrifuged at 3200 rpm for 10 minutes at approximately 5° C. within 1 hour of collection. Plasma was directly transferred to a 96-well plate tube (0.125 mL). Plug caps were placed on the tubes and the tubes frozen at approximately −70° C. and stored until analysis. Plasma was collected and analyzed for the presence of a compound. Quantitation of Compounds and cGMP. The compound of the invention, cGMP and the internal standard were extracted from plasma and CSF by precipitation. Samples were analyzed using liquid chromatography (LC) with tandem mass spectrometric detection (MS/MS) using electrospray ionization. The standard curve range was from 1 to 1000 ng/mL. Results of the compounds described herein in this assay are illustrated in Table 7 below (3 and 10 mg/kg dose). Statistics were determined by planned comparison t-tests.

In the case of `Fc1ccccc1Cc1nc(-c2nc(C(F)(F)F)n[nH]2)cn2ccnc12` [Compound I-1, 8-(2-fluorobenzyl)-6-(3-(trifluoromethyl)-1H-1,2,4-triazol-5-yl)imidazo[1,2-a]pyrazine], the “% of activity vs. vehicle” value (rats [1]) is reported as 31%, the “% of activity vs. vehicle” value (rats [2]) is reported as 25% and the Kp uu at 1 h ([3]; CSF / unbound plasma, @ 1 h) is reported as 0.7. The Kp uu at 2 h ([3]; CSF / unbound plasma, @ 2 h) was 0.7, the Kp uu at 4 h ([3]; CSF / unbound plasma, @ 4 h) was 0.7 and the Kp uu at 8 h ([3]; CSF / unbound plasma, @ 8 h) was 0.4. The concentration at 1 h ([3]; CSF, @ 1 h, read-out: CSF Conc.) was 34 nM, the concentration at 2 h ([3]; CSF, @ 2 h, read-out: CSF Conc.) was 34 nM and the concentration at 4 h ([3]; CSF, @ 4 h, read-out: CSF Conc.) was 19 nM. The concentration at 8 h ([3]; CSF, @ 8 h, read-out: CSF Conc.) was 2.4 nM, the “% of activity vs. vehicle” value (rats [4]) was 38% and the “brain activation (fMRI-BOLD)” value [5] was “a greater region of the brain is activated”. For the same compound, the “CSF Conc. (nM @ 1 h)” value (cGMP in rat CSF; 3 mg/kg PO) was 7.2* nM, the “CSF Conc. (nM @ 6 h)” value (cGMP in rat CSF; 3 mg/kg PO) was 6.7 nM and the “CSF Conc. (nM @ 1 h)” value (cGMP in rat CSF; 10 mg/kg PO) was 14.8** nM. The “CSF Conc. (nM @ 6 h)” value (cGMP in rat CSF; 10 mg/kg PO) was 13.8* nM.
